Columns and labels:
[1] = system: aged cats with chronic kidney disease (CKD), IRIS stage 1-3; assay: Retrospective case-controlled study: long-term meloxicam in aged cats with CKD (Group A) vs age and IRIS matched untreated controls (Group C); assay type: in vivo, cat
Method: The diagnosis of osteoarthritis or spondylosis deformans had been made based upon any two of the following: owner noted mobility changes, physical examination findings or radiographic changes. […] In addition, cats were only included if serum biochemistry, urine analysis and body weight had been regularly monitored. […]
In house urine specific gravity was determined with a Reichert Vet360 refractometer. Urine specific gravity was regularly compared to that measured by the same reference laboratory. […]

[2] = system: aged cats without chronic kidney disease (no-CKD); assay: Retrospective case-controlled study: long-term meloxicam in aged cats without CKD (Group B) vs age matched untreated controls (Group D); assay type: in vivo, cat
Excerpt: The medical records of a feline-only practice were searched for cats with OA being treated with meloxicam during a 4 year period. A diagnosis of OA was based upon any two of the following: owner noted mobility changes and/or physical examination findings or radiographic changes. Cats included were older than 7 years and treated with meloxicam for a duration of more than 6 months. Biochemistry, urinalysis and body weight were regularly monitored. The progression of renal disease in the aged non-renal and renal group treated was compared to age matched and IRIS matched untreated controls from the same clinic. IRIS staging of CKD follows specific guidelines on the diagnosis and assessment of progression of renal disease in small animals as described below. Animals are being divided into […] categories according to the stage of their disease, see Table 1 (iris-kidney.com).
The database of a feline-only practice in suburban Melbourne was searched for cats which had been treated for chronic musculoskeletal diseases with meloxicam (Metacam® oral suspension, Boehringer Ingelheim) during a 4 year period. The diagnosis of osteoarthritis or spondylosis deformans had been made based upon any two of the following: owner noted mobility changes, physical examination findings or radiographic changes. The inclusion criteria included cats greater than 7 years old which had been treated continuously with meloxicam for a duration of more than 6 months and which had complete medical records available for review. In addition, cats were only included if serum biochemistry, urine analysis and body weight had been regularly monitored.
Young cats were excluded, as were cats with no pre-treatment renal parameter measurements. In addition cats were also excluded if the owner could not be contacted to check that the cats were still receiving daily treatment with meloxicam.
Age, breed, sex, concomitant diseases and medications as well as date treatment commenced, treatment duration and daily dose of meloxicam were recorded.
The majority of serum biochemistry determination was via external reference laboratory (Normal Range: Creatinine 0.08-0.20 mmol/L) and the remainder with an in-house IDEXX biochemistry and electrolyte machine (Normal Range: Creatinine 71-212 umol/L). In house urine specific gravity was determined with a Reichert Vet360 refractometer. Urine specific gravity was regularly compared to that measured by the same reference laboratory. Urine sediment examination and dipstick determination was carried out in-house with necessary urine cultures and urine protein. Urine creatinine determination was carried out at the same reference laboratory. […]
The median age of the renal and non-renal treated cats, median treatment duration and median maintenance dose was calculated. […]

- progression of creatinine ([2]; meloxicam treated no-CKD group (B) vs untreated no-CKD group): no significant difference
- progression of renal parameters ([2]; non-renal group treated with meloxicam (B) vs non-renal group not treated, median maintenance dose 0.02 mg/kg daily, median treatment duration 327 days): no differences
Compound: Cc1cnc(NC(=O)C2=C(O)c3ccccc3S(=O)(=O)N2C)s1 [meloxicam]
- differences from baseline in body weight ([1]; CKD-meloxicam group (A) vs age and IRIS matched untreated CKD group (C), time adjusted AUC, Wilcoxon rank-sum-test): no statistically significant differences
- median maintenance dose after dose titration to the lowest effective dose ([1]; renal treated group (A), oral suspension): 0.02 mg/kg daily
- differences from baseline in body weight ([2]; no-CKD meloxicam group (B) vs untreated no-CKD group (D), time adjusted AUC, Wilcoxon rank-sum-test): no statistically significant differences
- median maintenance dose after dose titration to the lowest effective dose ([2]; non-renal treated group (B), oral suspension): 0.02 mg/kg daily
